{"source": "patent US7268108B2", "about": "“Alpha-melanocyte stimulating hormone derivatives and cosmetic application thereof” (Institut European de Biologie Cellulaire, priority 2002, dated 2007)", "system": "cutaneous melanogenesis", "assay": "double-blind study of melanostimulant effects by topical administration in humans", "type": "in vivo", "conditions": "gel at 10 ppm, topical twice a day for 3 weeks, listed as peptide no. 1", "procedure": "2. A double-blind study of the melanostimulant effects by topical administration of peptide no. 1 in the table was carried out in humans.\nA gel of peptide no. 1 at 10 ppm and its placebo were applied, twice a day for 3 weeks, to the inner face of the forearms of twelve normal volunteers who had given their informed consent. Since the arms were not exposed to the sun, they were given an exactly calibrated artificial solar exposure of 0.6 MED (minimum erythema dose) once a day from the 16th to 20th day.\n24 h after the final treatment, a clinical evaluation of the treated regions was carried out blind, and the intensity of coloration was marked according to a five-level index scale. A biopsy sample was then taken in order to quantify the melanin produced and to evaluate the ultrastructural consequences of the treatment.\nThe quantification of the epidermal melanin was carried out on histological sections by image analysis after labeling with AgNO3. Only the active layers of the epidermis were analyzed (from the stratum germinativum to the stratum spinosum), using the Leica Quantimet after digitization (Sony CCD camera).\nThe ultrastructural analysis of the melanocytes and melanosomes was carried out by electron microscopy. A double-contrast technique was used on the thin sections, which were then observed at magnifications ranging up to ×12000 (Jeol 1200EX).", "note": "“Also recorded” adds a separate entry of the source. Where a SMILES comes first, the peptide text is derived from it. [ ]: non-standard residue; d: D form. Nle = CCCC[C@H](N)C(=O)O", "data": [{"smiles": "CCCC[C@H](NC(C)=O)C(=O)N[C@@H](C)C(=O)N[C@@H](Cc1c[nH]cn1)C(=O)N[C@H](Cc1ccccc1)C(=O)N[C@@H](CCCNC(=N)N)C(=O)N[C@@H](Cc1c[nH]c2ccccc12)C(N)=O", "note": "[Compound 1, Ac-Nle-Ala-His-DPhe-Arg-Trp-NH2] (Ac-[Nle]AH[dF]RW-NH2)", "values": [{"measurement": "local tolerance (clinical observation of the treated regions)", "value": "no sign of intolerance; also recorded: completely tolerated at the local level"}]}]}
